Active and inactive are the calls of the source. The calls are words filed in the database; no cut-off is given here.
How the values were obtained:
HCT-116 [1] = test: Antiproliferative activity against human HCT-116 cells assessed as reduction in cell viability at 10 uM incubated for 6 to 72 hrs by Hoechst33342 staining based analysis; format: functional; conditions: time 6-72 hrs
[2] = target: T1, Serine/threonine-protein kinase 24 (Homo sapiens, UniProt Q9Y6E0); test: Inhibition of MST3 (unknown origin)
Target sequence in this assay (Q9Y6E0 whole entry): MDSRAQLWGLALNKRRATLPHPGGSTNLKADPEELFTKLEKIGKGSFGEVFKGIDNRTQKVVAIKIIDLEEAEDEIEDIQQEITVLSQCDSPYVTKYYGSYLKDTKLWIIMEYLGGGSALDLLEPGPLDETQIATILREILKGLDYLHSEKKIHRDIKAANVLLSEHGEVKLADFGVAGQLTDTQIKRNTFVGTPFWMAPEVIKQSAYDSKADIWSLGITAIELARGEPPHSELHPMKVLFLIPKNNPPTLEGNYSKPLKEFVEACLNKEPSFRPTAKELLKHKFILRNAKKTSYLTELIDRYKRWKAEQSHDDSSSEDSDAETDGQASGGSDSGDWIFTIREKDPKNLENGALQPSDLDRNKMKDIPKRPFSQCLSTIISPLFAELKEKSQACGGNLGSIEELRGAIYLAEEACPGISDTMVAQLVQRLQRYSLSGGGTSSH

[3] = target: T2, Serine/threonine-protein kinase 26 (Homo sapiens, UniProt Q9P289); test: Inhibition of MST4 (unknown origin)
Target sequence in this assay (Q9P289 whole entry): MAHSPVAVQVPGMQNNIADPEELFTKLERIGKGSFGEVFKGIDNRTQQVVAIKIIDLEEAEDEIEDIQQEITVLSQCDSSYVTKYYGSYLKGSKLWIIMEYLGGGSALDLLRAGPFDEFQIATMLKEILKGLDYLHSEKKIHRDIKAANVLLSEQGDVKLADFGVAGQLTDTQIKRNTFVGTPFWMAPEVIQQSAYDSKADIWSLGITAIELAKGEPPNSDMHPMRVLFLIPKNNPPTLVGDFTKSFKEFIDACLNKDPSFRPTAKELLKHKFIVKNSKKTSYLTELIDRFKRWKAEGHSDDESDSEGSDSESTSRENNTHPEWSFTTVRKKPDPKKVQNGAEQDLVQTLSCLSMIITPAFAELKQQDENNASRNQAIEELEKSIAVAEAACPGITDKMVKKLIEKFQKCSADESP

[4] = target: T3, Serine/threonine-protein kinase 4 (Homo sapiens, UniProt Q13043); test: Inhibition of MST1 (unknown origin) expressed in HEK293T cells using NanoGlo as substrate incubated for 20 hrs by NanoBRET assay; format: cell-based
T3 sequence (Q13043 whole entry): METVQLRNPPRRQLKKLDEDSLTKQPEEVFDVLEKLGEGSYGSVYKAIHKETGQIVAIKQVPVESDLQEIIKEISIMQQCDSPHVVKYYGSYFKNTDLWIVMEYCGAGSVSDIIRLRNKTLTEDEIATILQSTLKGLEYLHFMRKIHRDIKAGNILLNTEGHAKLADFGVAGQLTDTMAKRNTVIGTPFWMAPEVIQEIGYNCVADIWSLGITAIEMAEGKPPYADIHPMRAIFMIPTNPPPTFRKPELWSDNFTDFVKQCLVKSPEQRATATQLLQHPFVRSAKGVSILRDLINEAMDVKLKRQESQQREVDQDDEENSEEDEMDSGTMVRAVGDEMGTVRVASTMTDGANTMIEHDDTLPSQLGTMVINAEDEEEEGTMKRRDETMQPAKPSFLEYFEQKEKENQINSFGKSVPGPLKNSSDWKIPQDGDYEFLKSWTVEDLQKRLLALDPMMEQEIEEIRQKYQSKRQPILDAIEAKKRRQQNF

[5] = target: T4, Serine/threonine-protein kinase 3 (Homo sapiens, UniProt Q13188); test: Inhibition of MST2 (unknown origin) expressed in HEK293T cells using NanoGlo as substrate incubated for 20 hrs by NanoBRET assay; format: cell-based
T4 sequence (Q13188 whole entry): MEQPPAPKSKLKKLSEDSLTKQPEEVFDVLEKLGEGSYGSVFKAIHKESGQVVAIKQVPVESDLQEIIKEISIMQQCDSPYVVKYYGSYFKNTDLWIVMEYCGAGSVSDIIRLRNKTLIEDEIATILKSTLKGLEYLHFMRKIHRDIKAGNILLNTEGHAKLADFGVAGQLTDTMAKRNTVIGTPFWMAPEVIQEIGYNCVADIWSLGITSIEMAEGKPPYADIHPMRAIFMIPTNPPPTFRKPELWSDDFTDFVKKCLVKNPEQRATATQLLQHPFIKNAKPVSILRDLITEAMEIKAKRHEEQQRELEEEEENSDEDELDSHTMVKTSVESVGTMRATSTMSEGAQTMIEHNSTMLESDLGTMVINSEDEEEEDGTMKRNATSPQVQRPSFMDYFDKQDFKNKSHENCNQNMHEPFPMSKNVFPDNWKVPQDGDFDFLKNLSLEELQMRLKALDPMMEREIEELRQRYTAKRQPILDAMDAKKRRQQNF

[6] = target: T2, Serine/threonine-protein kinase 26; test: Inhibition of MST4 (unknown origin) expressed in HEK293T cells using NanoGlo as substrate incubated for 20 hrs by NanoBRET assay; format: cell-based
Target sequence in this assay (Q9P289 whole entry): as the sequence (Q9P289 whole entry) above

[7] = target: Serine/threonine-protein kinase SIK2 (Homo sapiens, UniProt Q9H0K1); test: Inhibition of SIK2 (unknown origin) expressed in HEK293T cells using NanoGlo as substrate incubated for 20 hrs by NanoBRET assay; format: cell-based
Serine/threonine-protein kinase SIK2, sequence (Q9H0K1 whole entry): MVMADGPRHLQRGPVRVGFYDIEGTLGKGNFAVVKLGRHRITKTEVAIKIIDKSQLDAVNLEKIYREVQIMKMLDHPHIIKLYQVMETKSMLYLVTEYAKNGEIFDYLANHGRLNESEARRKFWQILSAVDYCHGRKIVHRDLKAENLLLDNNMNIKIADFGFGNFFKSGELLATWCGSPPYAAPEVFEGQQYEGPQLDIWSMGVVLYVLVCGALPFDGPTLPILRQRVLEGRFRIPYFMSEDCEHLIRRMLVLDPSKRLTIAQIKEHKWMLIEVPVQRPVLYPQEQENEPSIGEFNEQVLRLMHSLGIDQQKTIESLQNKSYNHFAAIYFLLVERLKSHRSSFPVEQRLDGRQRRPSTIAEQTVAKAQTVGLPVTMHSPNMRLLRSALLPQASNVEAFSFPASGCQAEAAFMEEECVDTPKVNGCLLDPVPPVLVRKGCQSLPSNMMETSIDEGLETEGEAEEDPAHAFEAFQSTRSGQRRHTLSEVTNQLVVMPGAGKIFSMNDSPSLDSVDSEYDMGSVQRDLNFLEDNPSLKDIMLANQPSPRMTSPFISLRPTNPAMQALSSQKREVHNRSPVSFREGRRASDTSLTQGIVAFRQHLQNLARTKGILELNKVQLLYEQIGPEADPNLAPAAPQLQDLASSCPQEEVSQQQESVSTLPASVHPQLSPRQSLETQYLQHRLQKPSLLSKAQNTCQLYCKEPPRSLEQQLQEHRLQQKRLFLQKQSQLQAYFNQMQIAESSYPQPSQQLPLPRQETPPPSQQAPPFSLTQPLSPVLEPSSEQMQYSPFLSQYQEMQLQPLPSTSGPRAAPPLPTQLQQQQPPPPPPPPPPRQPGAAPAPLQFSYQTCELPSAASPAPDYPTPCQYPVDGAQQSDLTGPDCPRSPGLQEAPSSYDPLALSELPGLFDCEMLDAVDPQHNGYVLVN

[8] = target: T5, Serine/threonine-protein kinase 4 (Homo sapiens) (UniProt Q13043); test: Binding affinity to recombinant MST1 (unknown origin) assessed as change in melting temperature by DSF analysis
T5 sequence (whole entry): T3 sequence (Q13043 whole entry)

[9] = target: T6, Serine/threonine-protein kinase 3 (Homo sapiens) (UniProt Q13188); test: Binding affinity to recombinant MST2 (unknown origin) assessed as change in melting temperature by DSF analysis
T6 sequence (whole entry): T4 sequence (Q13188 whole entry)

[10] = target: T1, Serine/threonine-protein kinase 24; test: Binding affinity to recombinant MST3 (unknown origin) assessed as change in melting temperature by DSF analysis
Target sequence in this assay (Q9Y6E0 whole entry, looked up): as the sequence (Q9Y6E0 whole entry) above

[11] = target: T2, Serine/threonine-protein kinase 26; test: Binding affinity to recombinant MST4 (unknown origin) assessed as change in melting temperature by DSF analysis
Target sequence in this assay (Q9P289 2-416 limits assumed): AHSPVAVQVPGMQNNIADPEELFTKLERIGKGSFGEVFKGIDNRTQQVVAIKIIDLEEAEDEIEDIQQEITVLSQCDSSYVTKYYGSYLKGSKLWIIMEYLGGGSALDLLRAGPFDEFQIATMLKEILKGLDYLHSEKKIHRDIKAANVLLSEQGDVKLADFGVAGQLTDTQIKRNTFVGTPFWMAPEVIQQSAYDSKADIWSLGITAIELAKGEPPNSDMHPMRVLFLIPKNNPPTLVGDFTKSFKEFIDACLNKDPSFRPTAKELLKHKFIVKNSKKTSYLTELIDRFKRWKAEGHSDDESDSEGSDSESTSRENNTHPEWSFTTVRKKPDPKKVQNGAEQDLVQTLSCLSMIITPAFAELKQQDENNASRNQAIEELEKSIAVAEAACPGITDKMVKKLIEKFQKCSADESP

[12] = target: Serine/threonine-protein kinase PAK 1 (Homo sapiens) (UniProt Q13153); test: Binding affinity to recombinant PAK1 (unknown origin) assessed as change in melting temperature by DSF analysis
Serine/threonine-protein kinase PAK 1 (Homo sapiens), sequence (Q13153 whole entry): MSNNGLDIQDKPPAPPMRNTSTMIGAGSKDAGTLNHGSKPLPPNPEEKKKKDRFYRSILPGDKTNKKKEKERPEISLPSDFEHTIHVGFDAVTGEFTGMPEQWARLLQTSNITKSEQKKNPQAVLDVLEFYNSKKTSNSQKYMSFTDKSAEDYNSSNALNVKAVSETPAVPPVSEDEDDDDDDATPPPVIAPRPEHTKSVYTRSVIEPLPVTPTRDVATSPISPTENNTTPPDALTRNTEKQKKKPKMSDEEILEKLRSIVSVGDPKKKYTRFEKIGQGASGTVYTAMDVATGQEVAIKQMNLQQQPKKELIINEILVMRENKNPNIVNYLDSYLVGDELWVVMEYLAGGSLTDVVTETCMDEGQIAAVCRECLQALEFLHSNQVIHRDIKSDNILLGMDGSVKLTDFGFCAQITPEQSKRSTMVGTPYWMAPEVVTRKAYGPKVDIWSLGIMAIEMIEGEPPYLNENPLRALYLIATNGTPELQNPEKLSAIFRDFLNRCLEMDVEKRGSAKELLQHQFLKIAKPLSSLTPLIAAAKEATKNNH

[13] = target: T1, Serine/threonine-protein kinase 24; test: Inhibition of MST3 (unknown origin) expressed in intact HEK293T cells using NanoGlo as substrate incubated for 20 hrs by NanoBRET assay; format: cell-based
Target sequence in this assay (Q9Y6E0 whole entry): as the sequence (Q9Y6E0 whole entry) above

[14] = target: T1, Serine/threonine-protein kinase 24; test: Inhibition of MST3 (unknown origin) expressed in lysed HEK293T cells using NanoGlo as substrate incubated for 20 hrs by NanoBRET assay; format: cell-based
Target sequence in this assay (Q9Y6E0 whole entry): as above

[15] = target: T7, Serine/threonine-protein kinase Nek2 (Homo sapiens, UniProt P51955); test: Inhibition of NEK2 (unknown origin) expressed in HEK293T cells using NanoGlo as substrate incubated for 20 hrs by NanoBRET assay; format: cell-based
T7 sequence (P51955 whole entry): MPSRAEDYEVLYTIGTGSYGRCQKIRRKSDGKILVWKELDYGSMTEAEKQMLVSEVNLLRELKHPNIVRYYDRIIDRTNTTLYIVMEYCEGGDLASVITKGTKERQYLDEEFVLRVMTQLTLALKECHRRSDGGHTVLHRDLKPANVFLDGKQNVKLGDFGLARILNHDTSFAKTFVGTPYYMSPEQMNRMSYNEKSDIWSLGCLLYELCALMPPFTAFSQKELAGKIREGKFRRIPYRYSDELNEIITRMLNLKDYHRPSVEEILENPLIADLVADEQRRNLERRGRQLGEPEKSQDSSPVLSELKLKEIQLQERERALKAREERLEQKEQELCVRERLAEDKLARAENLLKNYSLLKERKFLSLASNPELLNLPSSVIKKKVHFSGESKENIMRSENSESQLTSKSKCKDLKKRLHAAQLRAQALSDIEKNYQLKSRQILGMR

[16] = target: Casein kinase I isoform epsilon (Homo sapiens, UniProt P49674); test: Inhibition of CK1e (unknown origin) expressed in HEK293T cells using NanoGlo as substrate incubated for 20 hrs by NanoBRET assay; format: cell-based
Casein kinase I isoform epsilon, sequence (P49674 whole entry, canonical isoform): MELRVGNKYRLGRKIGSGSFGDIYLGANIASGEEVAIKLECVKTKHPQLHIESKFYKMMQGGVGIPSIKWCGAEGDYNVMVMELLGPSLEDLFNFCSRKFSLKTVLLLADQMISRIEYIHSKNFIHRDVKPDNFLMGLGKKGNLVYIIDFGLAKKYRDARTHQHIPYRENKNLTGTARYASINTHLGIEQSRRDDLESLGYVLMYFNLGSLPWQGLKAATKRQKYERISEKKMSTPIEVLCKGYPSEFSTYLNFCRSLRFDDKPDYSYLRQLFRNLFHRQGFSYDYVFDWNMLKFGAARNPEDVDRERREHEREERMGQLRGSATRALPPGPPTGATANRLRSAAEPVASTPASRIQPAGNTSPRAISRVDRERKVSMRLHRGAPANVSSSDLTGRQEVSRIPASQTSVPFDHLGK

[17] = target: Tyrosine-protein kinase Fes/Fps (Homo sapiens, UniProt P07332); test: Inhibition of FES (unknown origin) expressed in HEK293T cells using NanoGlo as substrate incubated for 20 hrs by NanoBRET assay; format: cell-based
Tyrosine-protein kinase Fes/Fps, sequence (P07332 whole entry): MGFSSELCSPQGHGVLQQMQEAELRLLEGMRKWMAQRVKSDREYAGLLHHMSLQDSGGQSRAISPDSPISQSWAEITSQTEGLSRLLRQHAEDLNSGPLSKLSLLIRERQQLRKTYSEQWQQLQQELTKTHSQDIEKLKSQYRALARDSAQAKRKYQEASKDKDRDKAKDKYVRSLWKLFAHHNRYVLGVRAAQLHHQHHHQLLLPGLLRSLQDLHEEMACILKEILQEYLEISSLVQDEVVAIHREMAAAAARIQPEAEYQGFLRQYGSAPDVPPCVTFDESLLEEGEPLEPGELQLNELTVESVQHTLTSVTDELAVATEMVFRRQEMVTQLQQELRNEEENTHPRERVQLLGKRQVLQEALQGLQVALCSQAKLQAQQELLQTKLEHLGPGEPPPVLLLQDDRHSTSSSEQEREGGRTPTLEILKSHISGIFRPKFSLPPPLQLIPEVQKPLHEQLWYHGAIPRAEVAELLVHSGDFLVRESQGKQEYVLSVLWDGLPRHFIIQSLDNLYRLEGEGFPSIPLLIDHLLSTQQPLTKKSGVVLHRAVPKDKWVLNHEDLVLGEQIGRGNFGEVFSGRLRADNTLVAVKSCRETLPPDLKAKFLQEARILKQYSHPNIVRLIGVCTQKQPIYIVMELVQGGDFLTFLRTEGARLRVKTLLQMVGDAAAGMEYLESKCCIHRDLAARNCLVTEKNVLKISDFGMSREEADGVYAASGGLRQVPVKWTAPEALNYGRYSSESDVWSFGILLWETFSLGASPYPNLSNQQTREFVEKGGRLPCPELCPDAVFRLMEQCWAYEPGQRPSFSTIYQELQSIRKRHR

HCT-116 [18] = test: Induction of apoptosis in human HCT-116 cells assessed as effect on cell count at 1 uM incubated for 72 hrs by Hoechst33342 staining based analysis; format: functional
HCT-116 [19] = test: Antiproliferative activity against human HCT-116 cells assessed as reduction in cell viability at 10 uM incubated for 48 hrs by Hoechst33342 staining based analysis; format: functional
HCT-116 [20] = test: Antiproliferative activity against human HCT-116 cells assessed as reduction in cell viability at 1 to 10 uM incubated for 24 hrs by Hoechst33342 staining based analysis; format: functional; conditions: dose 1-10 µM
HCT-116 [21] = test: Induction of cell cycle arrest in human HCT-116 cells assessed as accumulation of cells at G1 phase at 10 uM incubated for 72 hrs by FUCCI based analysis; format: functional
[22] = Microsomal stability in Sprague-Dawley rat liver microsome incubated for 1 hr by HPLC analysis; format: ADME; conditions: liver microsomes, read-out: Stability
[23] = target: T3, Serine/threonine-protein kinase 4
[24] = target: T4, Serine/threonine-protein kinase 3
HCT-116 [25] = test: Induction of apoptosis in human HCT-116 cells assessed as increase in cell count at 10 uM incubated for 48 hrs by Hoechst33342 staining based analysis; format: functional
HCT-116 [26] = test: Induction of cell cycle arrest in human HCT-116 cells assessed as accumulation of cells at G2/M phase incubated for 72 hrs by FUCCI based analysis; format: functional; conditions: dose 10.0 µM
HCT-116 [27] = test: Induction of apoptosis in human HCT-116 cells assessed as increase in fluorescence intensity at 10 uM incubated for 24 hrs by Hoechst33342 staining based analysis; format: functional, cell-based
HCT-116 [28] = test: Induction of apoptosis in human HCT-116 cells assessed as effect on cell count at 10 uM incubated for 72 hrs by Hoechst33342 staining based analysis; format: functional
[29] = target: T1, Serine/threonine-protein kinase 24; test: Inhibition of MST3 (unknown origin) expressed in HEK293T cells using NanoGlo as substrate incubated for 20 hrs by NanoBRET assay; format: cell-based
Target sequence in this assay (Q9Y6E0 whole entry): as the sequence (Q9Y6E0 whole entry) above

SMILES	Activity (HCT-116 [1])	EC50 [4] [nM]	EC50 [5] [nM]	EC50 [6] [nM]	EC50 [7] [nM]	ΔTm [8] [°C]	ΔTm [9] [°C]	ΔTm [10] [°C]	ΔTm [11] [°C]	ΔTm [12] [°C]	EC50 [13] [nM]	EC50 [14] [nM]	further results
CC(=O)NC1CCN(c2ncnc3[nH]cc(-c4cccc(Cl)c4)c23)CC1	inactive	–	–	–	–	–	–	–	–	–	–	–	–
CCOc1cc2ncc(C#N)c(Nc3ccc(OCc4ccccn4)c(Cl)c3)c2cc1NC(=O)/C=C/CN(C)C [NERATINIB]	–	–	–	–	–	–	–	–	–	–	–	–	IC50 [2]: 7 nM; IC50 [3]: 7 nM
Cc1cccc(-c2ccc(-c3cc4cnc(NC(CO)CO)nc4n(CCCCN)c3=O)c(Cl)c2)n1	inactive	> 50000	> 50000	583	7400	2.1	4.6	10.6	8.1	5.1	57	81	EC50 [15]: > 5000 nM; EC50 [16]: 17600 nM; EC50 [17]: > 50000 nM; Activity (HCT-116 [18]): Active; Activity (HCT-116 [19]): 30%; Activity (HCT-116 [20]): >90%; Activity (HCT-116 [21]): Active; remaining at 1 h [22]: 90%
CN1C(=O)c2sccc2N(C)c2nc(Nc3ccc(S(N)(=O)=O)cc3)ncc21	–	–	–	–	–	–	–	–	–	–	–	–	IC50 [23]: 162 nM; IC50 [24]: 493 nM
N#Cc1cccc(-c2c[nH]c3ncnc(N4CCOCC4)c23)c1	inactive	–	–	–	–	–	–	–	–	–	–	–	Activity (HCT-116 [25]): Active; Activity (HCT-116 [26]): Dose-Dependent Effect
CNC(=O)c1nn(C)c2c1C(C)(C)Cc1cnc(Nc3ccc(N4CCN(C)CC4)cc3)nc1-2	–	–	–	–	–	–	–	–	–	–	–	–	Activity (HCT-116 [21]): Active
Cc1cccc(-c2ccc(-c3cc4cnc(NCCCN5CCCC5=O)nc4n(CCCCN)c3=O)c(Cl)c2)n1	inactive	15100	16900	1100	1300	1.1	2.2	10.6	7.5	3.6	178	56	Activity (HCT-116 [18]): Active; Activity (HCT-116 [19]): 30%; Activity (HCT-116 [21]): Active
CCS(=O)(=O)Nc1ccc2c(c1)/C(=C(/Nc1ccc(CN3CCCCC3)cc1)c1ccccc1)C(=O)N2 [HESPERADIN]	–	–	–	–	–	–	–	–	–	–	–	–	IC50 [2]: 10 nM; IC50 [3]: 6 nM
Cc1cccc(-c2ccc(-c3cc4cnc(Nc5ccc(CCCO)cc5)nc4n(CCCCN)c3=O)c(Cl)c2)n1	–	251	249	48	49	8.7	13.7	16.7	15.3	9.1	20	20	Activity (HCT-116 [27]): Active
Cc1cccc(-c2ccc(-c3cc4cnc(NCCCN5CCOCC5)nc4n(CCCCN)c3=O)c(Cl)c2)n1	inactive	5300	10200	115	512	3.6	5.9	11.6	10.6	4.1	55	27	Activity (HCT-116 [27]): Active; Activity (HCT-116 [28]): Active
CNc1ncc2cc(-c3ccc(-c4cccc(C)n4)cc3Cl)c(=O)n(CCCCN)c2n1	inactive	4100	2600	457	99	5.6	7.9	11.7	11.4	6.5	221	42	EC50 [29]: 42 nM; Activity (HCT-116 [27]): Active; Activity (HCT-116 [28]): Active
Cc1cccc(-c2ccc(-c3cc4cnc(Nc5cc(C(F)(F)F)ccc5C)nc4n(CCCCN)c3=O)c(Cl)c2)n1	–	5700	5500	2200	5500	5.8	10.2	13	9.5	5.9	–	367	–
